# How the values were obtained:
# Format in all cases: cell-based
# [1] = system: LFA-1 binding to ICAM-1 triggered through CXCR4; assay: SDF-1α-induced cell adhesion assay; conditions: Jurkat cells treated with 20 mM
# Protocol: Cell adhesion assays were carried out essentially as previously described (Liao et al., supra, 2000). The wells of 96 well plates were coated with recombinant ICAM-Ig and blocked as described. Jurkat cells were labeled with horseradish peroxidase (HRP) and treated with either 20 mM 2-OH-βCD or medium alone as described above. The cells were then washed and resuspended in cRPMI at a density of 2×10^6/ml. One hundred Tl of cells were added to the wells along with cRPMI alone or medium containing 10 ng/ml of SDF-1α. The wells were incubated at 37° C. for various times before washing to remove unbound cells. Bound cells were lysed and HRP measured as described previously. A standard curve was generated by from known numbers of labeled cells lysed and quantitated by measuring HRP.
# Loss of CXCR function in regulating LFA-1 could also explain the lower binding of HIV-1 to βCD-treated cells observed previously (Liao et al., supra, 2000; Orentas and Hildreth, supra, 1993). […] The ability of βCD treatment of cells to affect control of LFA-1 function by CXCR4 also was examined. Jurkat cells were treated with 2-OH-βCD or medium alone, then were added to the wells of culture plates coated with soluble recombinant ICAM-Ig. SDF-1, a CXCR4-specific chemokine that triggers LFA-1 function, was added to trigger binding of LFA-1 to ICAM-1. […]
# [2] = system: CD4+ HIV-susceptible target cells; assay: Cell viability, growth and function after 2-OH-βCD treatment
# Excerpt: The role of lipid rafts in the HIV-1 fusion process was examined by treating CD4+HIV-susceptible target cells with 2-OH-βCD to deplete membrane cholesterol and disperse lipid rafts.
# Loss of CXCR function in regulating LFA-1 could also explain the lower binding of HIV-1 to βCD-treated cells observed previously (Liao et al., supra, 2000; Orentas and Hildreth, supra, 1993). […] The ability of βCD treatment of cells to affect control of LFA-1 function by CXCR4 also was examined. Jurkat cells were treated with 2-OH-βCD or medium alone, then were added to the wells of culture plates coated with soluble recombinant ICAM-Ig. SDF-1, a CXCR4-specific chemokine that triggers LFA-1 function, was added to trigger binding of LFA-1 to ICAM-1. Control cells responded to SDF-1 and, as expected, bound very well to ICAM-Ig. […] CXCR4-specific gp120 triggers the same responses through CXCR4 as SDF-1 (Iyengar et al., J. Immunol. 162:6263-6267, 1999).
# βCD treatment blocks HIV-1 virus infection. HIV-1 can spread in cell cultures without necessarily exerting cytopathic effects. […] To test the effects of cholesterol depletion on HIV-1 infection of primary T cells by free virus, PHA blasts were treated with 10 mM 2-OH-βCD or medium alone, then were exposed to HIV-1 for 2 hr before washing to remove input virus. Viability and growth of the PHA blasts was not affected by treatment with the βCD under the conditions used. P24 release was measured after an addition 6 days in culture. Two primary strains of HIV-1, 97.099 and 97.534, M-tropic (R5) and dual-tropic (X4R5), respectively, were tested.
# The effects of βCD treatment on HIV infectivity were measured in a sensitive single-cycle infection assay based on a cell line transfected with an LTR-luciferase cassette. […] Quantitative measurements of single round infection are obtained with this assay system (Roos et al., Virology 273:307-315, 2000, which is incorporated herein by reference). Viability of LuSIV cells as determined by trypan blue exclusion and proliferation was not affected by 2-OH-βCD treatment. βCD treatment of LuSIV cells reduced HIV infection by almost 100%, and the effects were readily seen at all viral input levels.
# HIV-1RF = assay: Free-virus mediated syncytium assay (fusion from without); conditions: MT2, SupT1, PM1; HIV-1RF >500 ng/ml p24, 3 hr at 37° C
# Protocol: Syncytium assays were carried out essentially as previously described (Hildreth and Orentas, supra, 1989). Briefly, cell lines or PHA blasts were treated with 20 mM 2-OH-βCD in RPMI 1640 or medium alone for 1 hr at 37° C. before washing twice with PBS. The treated cells were then mixed with HIV-1 infected cells, each at density of 2×10^6/ml, in cRPMI and incubated at 37° C. Syncytia were scored and photographed 3 to 6 hr after mixing. For free-virus mediated syncytium assays (“fusion from without”), HIV-1RF from infected PM1 culture supernatants were clarified by 0.45 Tm filtration (p24 concentration greater than 500 ng/ml). 2-OH-βCD-treated and non-treated cell lines were added to the virus preparations and incubated at 37° C. for 3 hr before counting syncytia.
# The effect of cholesterol depletion on virus-cell fusion (“fusion from without”) was also determined.
# CD4 = assay: Flow cytometry of CD4 surface expression
# Protocol: Flow cytometry was performed as previously described (Orentas and Hildreth, supra, 1993). Briefly, 2×10^5 2-OH-βCD treated or untreated cells in 100 μl PBS containing 5% normal goat serum (NGS) were added to 100 μl of MAb (1-5 μg) and incubated 30 min on ice. In comparative experiments we prefixed the cells with 2% paraformaldehyde in PBS immediately after 2-OH-βCD treatment. Cells were washed with PBS, resuspended in 100 μl of PBS, 5% NGS containing 2 Tg of FITC conjugated-goat anti-mouse IgG (FITC-GAM) and incubated 1 h on ice. Cells were then washed with PBS and fixed with 2% paraformaldehyde followed by analysis on an EPICS Profile II flow cytometer.
# Cholesterol depletion also promoted CXCR4 down-modulation by MAb-induced internalization. A possible explanation for the inhibition of syncytium formation by cholesterol depletion as described above is that CD4, CRs, or both are lost from the cell surface, for example, by extrusion from the membrane in vesicles after loss of cholesterol, or they could be internalized. To explore these possibilities, βCD treated cells were examined for expression of HIV receptors by flow cytometry. […] In contrast, cell surface expression of CXCR4 was reduced by 50% or more in all of the cells after 2-OH-βCD treatment (Table 1).
# In order to determine whether the loss of CXCR4 expression was due to MAb-induced internalization, cells were fixed with 2% paraformaldehyde in PBS immediately after 2-OH-βCD treatment and before staining with MAbs for flow cytometry.
substance,measurement,setting,value
2-hydroxypropyl-β-cyclodextrin [2-OH-βCD],Binding of Jurkat cells to ICAM-Ig after exposure to SDF-1,[1],no binding to ICAM-Ig
same,Viability and growth of the PHA blasts,[2]; 10 mM,not affected
same,Cell viability by Trypan Blue exclusion,[2]; 10 to 20 mM for 1 hr at 37° C,without any loss in cell viability
same,Cell viability,"[2]; Jurkat cells, adhesion assay",no effect on cell viability
same,Viability of LuSIV cells by trypan blue exclusion and proliferation,[2]; LuSIV cells,not affected
same,Cell growth after treatment,[2]; placed back into culture in cholesterol-containing medium,continued to grow normally
same,Ca2+ flux responses to anti-CD3 MAb,[2]; treated Jurkat cells,still showed Ca^2+ flux responses
same,Syncytium formation on exposure to free virus,HIV-1RF,no syncytium formation
same,CD4 (MCF),"CD4; H9, 20 mM, fixed with 2% paraformaldehyde immediately after treatment",50 MCF
same,CD4 (MCF),"CD4; H9 cells, 20 mM, not fixed before staining",20.9 MCF
same,CD4 (MCF),"CD4; MT2 cells, 20 mM, not fixed before staining",62.2 MCF
same,CD4 expression after treatment,CD4; PHA blasts or any of the cell lines tested,did not change
same,CD4 (MCF),"CD4; PM1, 20 mM, fixed with 2% paraformaldehyde immediately after treatment",129 MCF
same,CD4 (MCF),"CD4; PM1 cells, 20 mM, not fixed before staining",85.9 MCF
same,CD4 (MCF),"CD4; SupT1, 20 mM, fixed with 2% paraformaldehyde immediately after treatment",213 MCF
same,CD4 (MCF),"CD4; SupT1 cells, 20 mM, not fixed before staining",188.3 MCF
same,CD4 expression on the cell surface,"CD4; cells fixed immediately after treatment, before MAb staining",remained unchanged

# Reference: US7589080B2, “β-cyclodextrin compositions, and use to prevent transmission of sexually transmitted diseases” (priority 2000, dated 2009)
